Laboratory results reported in PMC12169104, “Towards the development of supramolecular self-associating amphiphiles as antibiofilm agents against Pseudomonas aeruginosa and Candida albicans biofilms” (Journal of Materials Chemistry. B, 2025).
Converted amounts (≈) assume the structure as drawn. Read-outs that look alike come from different tables or passages of the source.

Key:
[1] = In vivo pharmacokinetic study, intravenous; design: species or system female CD-1 mice; conditions: IV 1 mg/kg
Method: In vitro Absorption, Distribution and Metabolism results […]
In vivo Pharmacokinetic study methods
SSA 5 was dosed at 1 mg/kg to female CD -1 mice (n=3) via an intravenous tail vein bolus administration, dose formulation was a solution in 2% DMSO/98% Water. Blood was sampled from the dorsal metatarsal vein at each time point (n=8) and added to tubes containing anticoagulant K2-EDTA. Blood samples were extracted by protein precipitation. Blood concentrations were calculated through UPLC-MS/MS techniques, with internal standard. The lower limit of quantitation was 6.4 nM. PK parameters were calculated using Phoenix WinNonlin version 8.3.

[2] = Kinetic solubility determination in PBS pH 7.4; type: physicochemical; conditions: phosphate buffered saline, aqueous buffer, kinetic from dmso stock, PBS pH 7.4, 300 µM nominal, 2 hours at 25°C
Method: (§1) Section S5: In vitro and in vivo studies
(§2) These studies were performed by Contract Research Organisation (CRO) Pharmaron. The methodology provided within the ESI is published within the express permission of this organisation.
(§3) The percentage of a compound recovered during the analysis process should be 100 %; any deviation from this value indicates experimental limitations such as unintended potential non-specific binding events to experimental equipment, solubility issues, etc.
(§4) In vitro Absorption, Distribution and Metabolism studies methods: […]
(§5) The ionisation
(§6) Kinetic Solubility Determination in PBS pH 7.4:
The stock solutions of test and control compounds were prepared in DMSO at 10 mM. From this a 300 µM solution was prepared in duplicate in 100 mM Phosphate Buffered Saline (PBS, pH 7.4 ± 0.1). These solutions were then shaken at 1100rpm for 2 hours at 25°C. Following incubation, the samples were filtered using a vacuum manifold. The filtrate was analysed and quantified against a standard of known concentration using liquid chromatography mass -spectrometry (LC -MS/MS). […]
coupled to a Sciex 4500 mass spectrometer (AB Inc., Illinois) Separation of compounds was achieved using an XSelect HSS T3 column (2.5µm, 50 x 2.1 mm) (Waters Ltd., Wilmslow) at a temperature of 40°C and a binary mobile phase gradient at a flow rate of 0.8 mL/min. […]

[3] = Metabolic stability in liver microsomes; type: in vitro ADME, mouse
Method: as §1, §2, §3, §4, §5, §6
(§7) The stock solutions of test and control compounds were prepared in DMSO at 10 mM. From this a 300 µM solution was prepared in duplicate in 100 mM Phosphate Buffered Saline (PBS, pH 7.4 ± 0.1). These solutions were then shaken at 1100rpm for 2 hours at 25°C. […]
(§8) Metabolic Stability in Rat, Mouse and Human Liver Microsomes :
(§9) The metabolic stability of compounds at a concentration of 1 µM, in rat, mouse and human liver microsomes (BD Gentest, Franklin Lakes NJ) was measured following incubation with hepatic microsomes (0.5 mg of protein / mL) in the presence and absence of cofa ctor (NADPH) at 37 °C.
(§10) Aliquots of each incubation were removed at 0.5, 5, 15, 30 and 60 minutes. The reaction was stopped by the addition of cold acetonitrile containing analytical internal standard (IS). […]

[4] = Metabolic stability in liver microsomes; type: in vitro ADME, human
Method: as §1, §2, §3, §4, §5, §6, §7, §8, §9, §10

[5] = mouse, whole blood, blood, female CD-1 mice

Cl Blood as % LBF ([1]; female CD-1 mice): > 100 % LBF
concentration at 2 h ([1]; female, CD-1, mouse, whole blood, 2 hours following dosing, read-out: blood level at last detected time): 8.1 nM
clearance ([1]; mouse, whole blood, female CD-1 mice, read-out: Cl Blood): 162 ± 28 mL/min/kg
Vd ([1]; mouse, whole blood, female CD-1 mice, read-out: Vss): 3.1 ± 1.7 L/kg
Cmax ([1]; mouse, whole blood, blood, DMSO:H2O 2:98, female CD-1 mice): 1200 ± 208 nM
AUC(0-inf) [1, 5]: 0.335 ± 0.06 µM·h
AUC(0-t) [1, 5]: 0.327 ± 0.057 µM·h
Tmax [1, 5]: 4.98 min
half-life ([1]; mouse, whole blood, terminal half-life, female CD-1 mice): 43.8 ± 36.6 min
solubility at 2 h [2]: 273 µM (≈ 85.8 µg/mL)
half-life at 1 µM ([3]; liver microsomes, mouse microsomes, 1 µM, read-out: In vitro T1/2): > 185 min
Hepatic Extraction Ratio (ER) ([3]; mouse): < 0.26
Hepatic Extraction Ratio (ER) ([4]; human): < 0.27
half-life at 1 µM ([4]; liver microsomes, human microsomes, 1 µM, read-out: In vitro T1/2): > 185 min
SMILES: O=C(O)CNc1c(Nc2ccc(C(F)(F)F)cc2)c(=O)c1=O [SSA 5]
